Key:
barnyard grass [1] = experiment: Test Example 3: herbicidal effect by foliage application, Wagner pot (Table 18, symbol H); type: in vivo, barnyard grass (Echinochloa crus-galli); details: amount of applied herbicide 320 g/ha
Method in brief: (§1)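 Plants were sown in alluvial soil held under 0.1–0.5 cm standing water and grown 14 days in a greenhouse at 25–30 °C. An emulsifiable formulation, water-diluted to the set dose, was then sprayed onto the foliage, and effects were scored three weeks later using previously defined criteria.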

Chinese sprangletop = experiment: Test Example 3: herbicidal effect by foliage application, Wagner pot (Table 18, symbol D); type: in vivo, chinese sprangletop (Leptochloa chinensis); details: amount of applied herbicide 320 g/ha
Method in brief: as §1

rice flat sedge = experiment: Test Example 3: herbicidal effect by foliage application, Wagner pot (Table 18, symbol E); type: in vivo, rice flat sedge (Cyperus iria); details: amount of applied herbicide 320 g/ha
Method in brief: as §1

southern crabgrass = experiment: Test Example 5: herbicidal effect by foliage application, plastic box (Table 20, symbol F); type: in vivo, southern crabgrass (Digitaria ciliaris); details: foliage application, evaluated three weeks after application; for F: southern crabgrass, herbicidal effect (criteria 0-5): AAH 320 g/ha
Method in brief: (§2)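 Sow seeds spot-wise in sterilized diluvial soil; cover with ~1.5 cm soil. Grow 14 days in greenhouse, 25° C. to 30° C. Spray foliage with emulsion diluted to predetermined amount. Rate effect after 3 weeks.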

green foxtail = experiment: Test Example 5: herbicidal effect by foliage application, plastic box (Table 20, symbol G); type: in vivo, green foxtail (Setaria viridis); details: foliage application, evaluated three weeks after application; for G: green foxtail, herbicidal effect (criteria 0-5): AAH 320 g/ha
Method in brief: as §2

barnyard grass [2] = experiment: Test Example 5: herbicidal effect by foliage application, plastic box (Table 20, symbol H); type: in vivo, barnyard grass (Echinochloa crus-galli); details: foliage application, evaluated three weeks after application; for H: barnyard grass, herbicidal effect (criteria 0-5): AAH 320 g/ha
Method in brief: as §2

wild oat = experiment: Test Example 5: herbicidal effect by foliage application, plastic box (Table 20, symbol I); type: in vivo, wild oat (Avena fatua); details: foliage application, evaluated three weeks after application; for I: wild oat, herbicidal effect (criteria 0-5): AAH 320 g/ha
Method in brief: as §2

blackgrass = experiment: Test Example 5: herbicidal effect by foliage application, plastic box (Table 20, symbol J); type: in vivo, blackgrass (Alopecurus myosuroides); details: foliage application, evaluated three weeks after application; for J: blackgrass, herbicidal effect (criteria 0-5): AAH 320 g/ha
Method in brief: as §2

Italian ryegrass = experiment: Test Example 5: herbicidal effect by foliage application, plastic box (Table 20, symbol K); type: in vivo, Italian ryegrass (Lolium multiflorum); details: foliage application, evaluated three weeks after application; for K: Italian ryegrass, herbicidal effect (criteria 0-5): AAH 320 g/ha
Method in brief: as §2

windgrass = experiment: Test Example 5: herbicidal effect by foliage application, plastic box (Table 20, symbol L); type: in vivo, windgrass (Apera spica-venti); details: foliage application, evaluated three weeks after application; for L: windgrass, herbicidal effect (criteria 0-5): AAH 320 g/ha
Method in brief: as §2

velvetleaf = experiment: Test Example 5: herbicidal effect by foliage application, plastic box (Table 20, symbol M); type: in vivo, velvetleaf (Abutilon theophrasti); details: foliage application, evaluated three weeks after application; for M: velvetleaf, herbicidal effect (criteria 0-5): AAH 320 g/ha
Method in brief: as §2

redroot pigweed = experiment: Test Example 5: herbicidal effect by foliage application, plastic box (Table 20, symbol N); type: in vivo, redroot pigweed (Amaranthus retroflexus); details: foliage application, evaluated three weeks after application; for N: redroot pigweed, herbicidal effect (criteria 0-5): AAH 320 g/ha
Method in brief: as §2

lambsquarters = experiment: Test Example 5: herbicidal effect by foliage application, plastic box (Table 20, symbol O); type: in vivo, lambsquarters (Chenopodium album); details: foliage application, evaluated three weeks after application; for O: lambsquarters, herbicidal effect (criteria 0-5): AAH 320 g/ha
Method in brief: as §2

chickweed = experiment: Test Example 5: herbicidal effect by foliage application, plastic box (Table 20, symbol P); type: in vivo, common chickweed (Stellaria media); details: foliage application, evaluated three weeks after application; for P: chickweed, herbicidal effect (criteria 0-5): AAH 320 g/ha
Method in brief: as §2

persian speedwell = experiment: Test Example 5: herbicidal effect by foliage application, plastic box (Table 20, symbol R); type: in vivo, Persian speedwell (Veronica persica); details: foliage application, evaluated three weeks after application; for R: persian speedwell, herbicidal effect (criteria 0-5): AAH 320 g/ha
Method in brief: as §2

| Structure (SMILES) | herbicidal effect on H: barnyard grass (barnyard grass [1]) | herbicidal effect on D: Chinese sprangletop (Chinese sprangletop) | herbicidal effect on E: rice flat sedge (rice flat sedge) | F: southern crabgrass, herbicidal effect (criteria 0-5) (southern crabgrass) | G: green foxtail, herbicidal effect (criteria 0-5) (green foxtail) | H: barnyard grass, herbicidal effect (criteria 0-5) (barnyard grass [2]) | I: wild oat, herbicidal effect (criteria 0-5) (wild oat) | J: blackgrass, herbicidal effect (criteria 0-5) (blackgrass) | K: Italian ryegrass, herbicidal effect (criteria 0-5) (Italian ryegrass) | L: windgrass, herbicidal effect (criteria 0-5) (windgrass) | M: velvetleaf, herbicidal effect (criteria 0-5) (velvetleaf) | N: redroot pigweed, herbicidal effect (criteria 0-5) (redroot pigweed) | O: lambsquarters, herbicidal effect (criteria 0-5) (lambsquarters) | P: chickweed, herbicidal effect (criteria 0-5) (chickweed) | R: persian speedwell, herbicidal effect (criteria 0-5) (persian speedwell) | also measured |
| --- | --- | --- | --- | --- | --- | --- | --- | --- | --- | --- | --- | --- | --- | --- | --- | --- |
| Cc1nn(C)c(=O)c(-c2c(-c3cccc(SC(C)C)c3)sc3ccc(F)cc23)c1O [2-250] | 3 (Herbicidal rate of 40% or more and less than 70%) | 2 (Herbicidal rate of 20% or more and less than 40%) | 3 (Herbicidal rate of 40% or more and less than 70%) | – | – | – | – | – | – | – | – | – | – | – | – | herbicidal effect on F: southern crabgrass (criteria 0-5) (southern crabgrass; 320 g/ha): 0 (Herbicidal rate of 5% or less (almost no effect)); herbicidal effect on G: green foxtail (criteria 0-5) (green foxtail; 320 g/ha): 0 (Herbicidal rate of 5% or less (almost no effect)); herbicidal effect on H: barnyard grass (criteria 0-5) (barnyard grass [2]; 320 g/ha): 0 (Herbicidal rate of 5% or less (almost no effect)); herbicidal effect on I: wild oat (criteria 0-5) (wild oat; 320 g/ha): 2 (Herbicidal rate of 20% or more and less than 40%); herbicidal effect on J: blackgrass (criteria 0-5) (blackgrass; 320 g/ha): 3 (Herbicidal rate of 40% or more and less than 70%); herbicidal effect on K: Italian ryegrass (criteria 0-5) (Italian ryegrass; 320 g/ha): 1 (Herbicidal rate of 5% or more and less than 20%); herbicidal effect on L: windgrass (criteria 0-5) (windgrass; 320 g/ha): 3 (Herbicidal rate of 40% or more and less than 70%); herbicidal effect on M: velvetleaf (criteria 0-5) (velvetleaf; 320 g/ha): 2 (Herbicidal rate of 20% or more and less than 40%); herbicidal effect on N: redroot pigweed (criteria 0-5) (redroot pigweed; 320 g/ha): 5 (Herbicidal rate of 90% or more (almost completely withered)); herbicidal effect on O: lambsquarters (criteria 0-5) (lambsquarters; 320 g/ha): 3 (Herbicidal rate of 40% or more and less than 70%); herbicidal effect on P: chickweed (criteria 0-5) (chickweed; 320 g/ha): 5 (Herbicidal rate of 90% or more (almost completely withered)); herbicidal effect on R: persian speedwell (criteria 0-5) (persian speedwell; 320 g/ha): 5 (Herbicidal rate of 90% or more (almost completely withered)) |
| Cc1nn(C)c(=O)c(-c2c(-c3cccc(SCC(F)(F)F)c3)sc3ccc(F)cc23)c1O [2-262] | 3 (Herbicidal rate of 40% or more and less than 70%) | 0 (Herbicidal rate of 5% or less (almost no effect)) | 2 (Herbicidal rate of 20% or more and less than 40%) | 0 (Herbicidal rate of 5% or less (almost no effect)) | 0 (Herbicidal rate of 5% or less (almost no effect)) | 0 (Herbicidal rate of 5% or less (almost no effect)) | 3 (Herbicidal rate of 40% or more and less than 70%) | 3 (Herbicidal rate of 40% or more and less than 70%) | 3 (Herbicidal rate of 40% or more and less than 70%) | 4 (Herbicidal rate of 70% or more and less than 90%) | 4 (Herbicidal rate of 70% or more and less than 90%) | 5 (Herbicidal rate of 90% or more (almost completely withered)) | 3 (Herbicidal rate of 40% or more and less than 70%) | 5 (Herbicidal rate of 90% or more (almost completely withered)) | 5 (Herbicidal rate of 90% or more (almost completely withered)) | – |
| Cc1nn(C)c(=O)c(-c2c(-c3ccc(OC(F)F)cc3)sc3ccc(F)cc23)c1OC(=O)C(C)(C)c1ccccc1 [2-282] | 3 (Herbicidal rate of 40% or more and less than 70%) | 0 (Herbicidal rate of 5% or less (almost no effect)) | 0 (Herbicidal rate of 5% or less (almost no effect)) | 0 (Herbicidal rate of 5% or less (almost no effect)) | 4 (Herbicidal rate of 70% or more and less than 90%) | 1 (Herbicidal rate of 5% or more and less than 20%) | 0 (Herbicidal rate of 5% or less (almost no effect)) | 0 (Herbicidal rate of 5% or less (almost no effect)) | 0 (Herbicidal rate of 5% or less (almost no effect)) | 0 (Herbicidal rate of 5% or less (almost no effect)) | 4 (Herbicidal rate of 70% or more and less than 90%) | 5 (Herbicidal rate of 90% or more (almost completely withered)) | 5 (Herbicidal rate of 90% or more (almost completely withered)) | 5 (Herbicidal rate of 90% or more (almost completely withered)) | 5 (Herbicidal rate of 90% or more (almost completely withered)) | – |

Source: patent US20230085307A1, “PYRIDAZINONE COMPOUND AND HERBICIDE” (NISSAN CHEMICAL CORPORATION, priority 2019, published 2023)
